The source of these data is patent publication US8101576B2, “Compounds and their effects on feeding behaviour” (priority 2006, dated 2012).

Square brackets hold non-standard residues; d marks the D form. Ends that are not written are not given here. * marks the point of attachment. Arachidoyl = CCCCCCCCCCCCCCCCCCCC(=O)*; Palmitoyl = CCCCCCCCCCCCCCCC(=O)*; Myristoyl = CCCCCCCCCCCCCC(=O)*

A short description of this assay: Inhibition of food intake, subcutaneous injection to fasted rats. The assay is classed as in vivo, Wistar rats. Here is the method: Animals: All animal procedures were approved by the British Home Office Animals (Scientific Procedures) Act 1986 (Project License number 70/5516).
Study protocol: C57BL/6 mice (20-35 g) were injected with the peptide under investigation following a 20-hour fast. Wistar rats were injected following a 24-hour fast. […] A pre-weighed quantity of chow was presented immediately after injection.

In the case of “D-His Ala Asp Gly Thr Phe Thr Ser Asp Tyr Ser Lys Tyr Leu Glu Gln Glu Ile Val Lys Tyr Phe Ile Gln Trp Leu Lys Asn Gly Gly Pro Ser Lys Asn Asn Ile Ala Lys ([dH]ADGTFTSDYSKYLEQEIVKYFIQWLKNGGPSKNNIAK) [PEPTIDE NO: 202]”, under “5 nmoles/kg, over 48 hours”, the “Mean cumulative food intake in comparison to saline control” value (shortened to “Mean cumulative food intake”) is “potent and long acting suppression of food intake”; the “food intake in comparison to control group treated with native oxyntomodulin” value (shortened to “food intake … with native oxyntomodulin”) is listed as “lower than in the control group treated with native oxyntomodulin”.

Regarding “D-His Ala Asp Gly Thr Phe Thr Ser Asp Tyr Ser Lys Tyr Leu Glu Gln Glu Ile Val Lys Tyr Phe Leu Gln Trp Leu Lys Asn Ala Gly Pro Ser Lys Asn Asn Ile Ala ([dH]ADGTFTSDYSKYLEQEIVKYFLQWLKNAGPSKNNIA) [PEPTIDE NO: 184]”, where the note is “3 nmoles/kg, over 24 hours”, the “Mean cumulative food intake” value was “potent and long acting suppression of food intake”; the “food intake … with native oxyntomodulin” value is “lower than in the control group treated with native oxyntomodulin”.

For “D-His Ala Asp Gly Thr Phe Thr Ser Asp Tyr Ser Lys Tyr Leu Glu Gln Glu Leu Val Lys Tyr Phe Ile Gln Trp Leu Lys Asn Ala Gly Pro Ser Lys Asn Asn Ile Ala ([dH]ADGTFTSDYSKYLEQELVKYFIQWLKNAGPSKNNIA) [PEPTIDE NO: 178]”, under “10 nmoles/kg, over 24 hours”, the “Mean cumulative food intake” value was “potent and long acting suppression of food intake”; the “food intake … with native oxyntomodulin” value is “lower than in the control group treated with native oxyntomodulin”.

As for “D-His Ala Asp Gly Thr Phe Thr Ser Asp Tyr Ser Lys Tyr Leu Glu Gln Glu Leu Val Lys Tyr Phe Ile Gln Trp Leu Lys Asn Gly Gly Pro Ser Lys Asn Asn Ile Ala Lys ([dH]ADGTFTSDYSKYLEQELVKYFIQWLKNGGPSKNNIAK) [PEPTIDE NO: 205]”, for the setting “5 nmoles/kg, over 32 hours”, the “Mean cumulative food intake” value was “potent and long acting suppression of food intake”; the “food intake … with native oxyntomodulin” value is reported as “lower than in the control group treated with native oxyntomodulin”.

With “D-His Ala Asp Gly Thr Phe Thr Ser Asp Tyr Ser Lys Tyr Leu Glu Gln Glu Leu Val Lys Tyr Phe Leu Gln Trp Leu Lys Asn Ala Gly Pro Ser Lys Asn Asn Ile Ala ([dH]ADGTFTSDYSKYLEQELVKYFLQWLKNAGPSKNNIA) [PEPTIDE NO: 172]”, for the setting “3 nmoles/kg, over 24 hours”, the “Mean cumulative food intake” value is “potent and long acting suppression of food intake”; the “food intake … with native oxyntomodulin” value was “lower than in the control group treated with native oxyntomodulin”.

As to “D-His Ala Asp Gly Thr Phe Thr Ser Asp Tyr Ser Lys Tyr Leu Glu Glu Glu Ile Val Lys Tyr Phe Ile Gln Trp Leu Lys Asn Gly Gly Pro Ser Lys Asn Asn Ile Ala ([dH]ADGTFTSDYSKYLEEEIVKYFIQWLKNGGPSKNNIA) [PEPTIDE NO: 167]”, the “food intake suppression continues for” value (5 nmoles/kg, 32 hours observed) was no less than 32 h. Where the note is “5 nmoles/kg, over 32 hours”, the “Mean cumulative food intake” value was “potent and long acting suppression of food intake”; the “food intake … with native oxyntomodulin” value is listed as “lower than in the control group treated with native oxyntomodulin”.

Consider “D-His Ala Asp Gly Thr Phe Thr Ser Asp Tyr Ser Lys Tyr Leu Glu Glu Glu Ile Val Lys Tyr Phe Ile Gln Trp Leu Lys Asn Gly Gly Pro Ser Lys Asn Asn Ile Ala Lys ([dH]ADGTFTSDYSKYLEEEIVKYFIQWLKNGGPSKNNIAK) [PEPTIDE NO: 201]”, for which, for the setting “5 nmoles/kg, over 48 hours”, the “Mean cumulative food intake” value was “potent and long acting suppression of food intake”; the “food intake … with native oxyntomodulin” value is listed as “lower than in the control group treated with native oxyntomodulin”.

As for “D-His Ala Asp Gly Thr Phe Thr Ser Asp Tyr Ser Lys Tyr Leu Glu Glu Glu Ile Val Lys Tyr Phe Ile Gln Trp Leu Met Asn Thr Lys Arg Asn Lys Asn Asn Ile Ala Lys ([dH]ADGTFTSDYSKYLEEEIVKYFIQWLMNTKRNKNNIAK) [PEPTIDE NO: 203]”, the “food intake suppression continues for” value (100 nmoles/kg, 24 hours observed) was no less than 24 h. Moreover, under “100 nmoles/kg, over 24 hours”, the “Mean cumulative food intake” value is “potent and long acting suppression of food intake”; the “food intake … with native oxyntomodulin” value is recorded as “lower than in the control group treated with native oxyntomodulin”.

For the substance “D-His Ala Asp Gly Thr Phe Thr Ser Asp Tyr Ser Lys Tyr Leu Glu Glu Glu Ile Val Lys Tyr Phe Ile Glu Trp Leu Lys Asn Gly Gly Pro Ser Lys Asn Asn Ile Ala ([dH]ADGTFTSDYSKYLEEEIVKYFIEWLKNGGPSKNNIA) [PEPTIDE NO: 164]”, the “food intake suppression continues for” value (4 nmoles/kg, 48 hours observed) was no less than 48 h. Moreover, under “4 nmoles/kg, over 48 hours”, the “Mean cumulative food intake” value was “potent and long acting suppression of food intake”; the “food intake … with native oxyntomodulin” value is recorded as “lower than in the control group treated with native oxyntomodulin”.

As to “D-His Ala Asp Gly Thr Phe Thr Ser Asp Tyr Ser Lys Tyr Leu Glu Glu Glu Leu Val Lys Tyr Phe Ile Gln Trp Leu Lys Asn Gly Gly Pro Ser Lys Asn Asn Ile Ala ([dH]ADGTFTSDYSKYLEEELVKYFIQWLKNGGPSKNNIA) [PEPTIDE NO: 155]”, under “4 nmoles/kg, 32 hours observed”, the “food intake suppression continues for” value is no less than 32 h. Moreover, under “4 nmoles/kg, over 32 hours”, the “Mean cumulative food intake” value is “potent and long acting suppression of food intake”; the “food intake … with native oxyntomodulin” value is recorded as “lower than in the control group treated with native oxyntomodulin”.

For “D-His Ala Asp Gly Thr Phe Thr Ser Asp Tyr Ser Lys Tyr Leu Glu Glu Glu Leu Val Lys Tyr Phe Ile Gln Trp Leu Lys Asn Gly Gly Pro Ser Lys Asn Asn Ile Ala Ala Ala Lys-arachidoyl ([dH]ADGTFTSDYSKYLEEELVKYFIQWLKNGGPSKNNIAAAK(Arachidoyl)) [PEPTIDE NO: 209]”, the “food intake … with native oxyntomodulin” value (80 mmoles/kg, over 48 hours) is given as “lower than in the control group treated with native oxyntomodulin”. The “Mean cumulative food intake” value (over 48 hours) is “potent and long acting suppression of food intake”.

For the substance “D-His Ala Asp Gly Thr Phe Thr Ser Asp Tyr Ser Lys Tyr Leu Glu Glu Glu Leu Val Lys Tyr Phe Ile Gln Trp Leu Lys Asn Gly Gly Pro Ser Lys Asn Asn Ile Ala Ala Ala Lys-myristoyl ([dH]ADGTFTSDYSKYLEEELVKYFIQWLKNGGPSKNNIAAAK(Myristoyl)) [PEPTIDE NO: 206]”, for the setting “80 mmoles/kg, over 48 hours”, the “food intake … with native oxyntomodulin” value is listed as “lower than in the control group treated with native oxyntomodulin”. In addition, the “Mean cumulative food intake” value (over 48 hours) is “potent and long acting suppression of food intake”.

On to “D-His Ala Asp Gly Thr Phe Thr Ser Asp Tyr Ser Lys Tyr Leu Glu Glu Glu Leu Val Lys Tyr Phe Ile Gln Trp Leu Lys Asn Gly Gly Pro Ser Lys Asn Asn Ile Ala Ala Ala Lys-palmitoyl ([dH]ADGTFTSDYSKYLEEELVKYFIQWLKNGGPSKNNIAAAK(Palmitoyl)) [PEPTIDE NO: 207]”, for which the “food intake … with native oxyntomodulin” value (80 mmoles/kg, over 48 hours) is on record as “lower than in the control group treated with native oxyntomodulin”. Where the note is “over 48 hours”, the “Mean cumulative food intake” value was “potent and long acting suppression of food intake”.

With “D-His Ala Asp Gly Thr Phe Thr Ser Asp Tyr Ser Lys Tyr Leu Glu Glu Glu Leu Val Lys Tyr Phe Ile Gln Trp Leu Lys Asn Gly Gly Pro Ser Lys Asn Asn Ile Ala Lys ([dH]ADGTFTSDYSKYLEEELVKYFIQWLKNGGPSKNNIAK) [PEPTIDE NO: 204]”, under “5 nmoles/kg, over 32 hours”, the “Mean cumulative food intake” value was “potent and long acting suppression of food intake”; the “food intake … with native oxyntomodulin” value was “lower than in the control group treated with native oxyntomodulin”.

For “D-His Ala Asp Gly Thr Phe Thr Ser Asp Tyr Ser Lys Tyr Leu Glu Glu Glu Leu Val Lys Tyr Phe Ile Glu Trp Leu Met Asn Thr Lys Arg Asn Lys Asn Asn Ile Ala ([dH]ADGTFTSDYSKYLEEELVKYFIEWLMNTKRNKNNIA) [PEPTIDE NO: 153]”, where the note is “200 mmoles/kg, over 24 hours”, the “Mean cumulative food intake” value is “potent and long acting suppression of food intake”; the “food intake … with native oxyntomodulin” value is “lower than in the control group treated with native oxyntomodulin”.

On to “D-His Ala Asp Gly Thr Phe Thr Ser Asp Tyr Ser Lys Tyr Leu Glu Glu Glu Leu Val Lys Tyr Phe Leu Gln Trp Leu Lys Asn Ala Gly Pro Ser Lys Asn Asn Ile Ala ([dH]ADGTFTSDYSKYLEEELVKYFLQWLKNAGPSKNNIA) [PEPTIDE NO: 148]”, for which, for the setting “10 nmoles/kg, over 24 hours”, the “Mean cumulative food intake” value was “potent and long acting suppression of food intake”; the “food intake … with native oxyntomodulin” value is on record as “lower than in the control group treated with native oxyntomodulin”.

For “D-His Ala Gln Gly Thr Phe Thr Ser Asp Tyr Ser Lys Tyr Leu Glu Gln Glu Ile Val Lys Tyr Phe Ile Gln Trp Leu Lys Asn Ala Gly Pro Ser Lys Asn Asn Ile Ala ([dH]AQGTFTSDYSKYLEQEIVKYFIQWLKNAGPSKNNIA) [PEPTIDE NO: 142]”, under “3 nmoles/kg, over 24 hours”, the “Mean cumulative food intake” value was “potent and long acting suppression of food intake”; the “food intake … with native oxyntomodulin” value is recorded as “lower than in the control group treated with native oxyntomodulin”.
